# According to US7994185B2, “Benzene sulfonamide thiazole and oxazole compounds” (Glaxo Smith Kline LLC, priority 2008, dated 2011):
# Counter-ions that a name gives are not always drawn. Like-named read-outs stand apart in the source and are kept apart here.
# Tests used:
# [1] = test system: Human colon tumor cells (Colo205); experiment: Cell growth inhibition assay (CellTiter-Glo), Colo205; assay type: cell-based
# In short: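 Read-out was CellTiter-Glo luminescence (total ATP as a cell-number surrogate), expressed as % inhibition against DMSO vehicle wells. Before that, cells grown in RPMI/10% FBS were treated for 3 days at 37 °C with ten 1:3-spaced compound concentrations, final DMSO 0.2%.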
# [2] = test system: Human melanoma cancer cells (SK-MEL-28); experiment: Cell growth inhibition assay (CellTiter-Glo), SK-MEL-28; assay type: cell-based
# pERK (pERK/tERK) = experiment: Pharmacodynamic effect, pERK/tERK in A375P F11s xenograft tumors; assay type: in vivo, mice; conditions: Mus musculus, read-out: inhibition of pERK (pERK/tERK)
# Description: Animals were housed in pathogen free conditions and handled with aseptic technique. […] Detached cells were collected, centrifuged (1500 rpm, 5 min, 4° C.) and rinsed to remove the trypsin solution. Cells were resuspended in PBS without magnesium or calcium and counted. Cells were spun as previously to remove PBS and a single cell suspension was created either in 50% Matrigel: 50% PBS (v:v) or 100% PBS so that a 100 μL subcutaneous injection would deliver the required number of cells per mouse. The A375P F11s melanoma line was injected with Matrigel at 4 million cells per mouse. Tumors were established (˜150-300 mm^3) for all cell lines within 2-4 weeks post-injection.
# At 2 h following oral administration of compound mice were euthanized using carbon dioxide. Tumors were carefully excised, homogenized using Medimachine (BD Bioscience) with 1 ml of lysis buffer (25 mM Tris-HCl (pH 7.5), 2 mM EDTA (pH 8.0), 2 mM EGTA (pH 8.0), 1% Triton X-100, 0.1% SDS, 50 mM Na—B—PO4, 2 mM NaVO4, 4 mM Na-Pyr-PO4, 2× phosphatase inhibitor cocktail. Crude homogenate was transferred to a 12 ml polypropylene tube containing 1.5 ml of lysis buffer and kept on ice. Following homogenization of all samples, 1 ml of homogenate was transferred to an eppendorf tube and centrifuged at 14,000 rpm for 15 min at 4° C. Five hundred microliter of clarified lysate was transferred to a new tube, flash frozen and processed for quantitation of pERK and tERK using western blot or Elisa (MSD) assays. […] BioRad dye was added to BSA dilutions and diluted test lysates. […] Comparison to the standard curve provides a relative measurement of protein concentration. […] The gels were transferred onto nitro-cellulose membranes using the iBlot transfer apparatus, which were then blocked and incubated with different primary antibodies overnight at 4° C. Western blots dually probed against pERK and tERK were scanned using LI-COR Odyssey® reader. A ratio of the immunofluorescent density obtained for pERK/tERK is calculated and expressed as a ratio (in percentage) to control untreated samples. For determination of pERK/tERK ratio by ELISA, MesoScale Discovery (MSD) (cat# K15107) plate were used according to manufacturer's instructions. In brief, MSD plates were block with 150 μl/well of blocking buffer for 1 hr before being washed 4 times with 200 μl of washing buffer. Thirty microliter (30 μl) of serially diluted samples was added to wells and plates were incubated overnight at 4° C. under slow agitation (˜500 rpm). Plates were washed 4 times in 200 μl 1× Tris wash buffer and 25 μl detection antibody solution was added to all wells and incubated at room temperature for 1 hr (˜500 rpm). Plates were washed 4 times in 200 μl wash buffer and 150 μl of read buffer was added to all wells. Plates were read on MSD.SI6000. In this assay vehicle and compound treated samples were tested at 4 different dilutions to allow linear range coverage of the assay. From pERK and tERK signal, background (BSA signal) was subtracted and ratio of pERK/tERK determined and normalized to untreated vehicle samples, arbitrarily set at 100%.
# [3] = biological target: T1, BRAFV600E full-length (amino acids 2-766) (Homo sapiens, UniProt P15056, V600E); experiment: B-Raf Accelerated MEK ATPase assay (BRAMA); assay type: biochemical; conditions: categorized
# T1 construct: His6-tagged BRAFV600E full-length (amino acids 2-766); His6; made in house; host or cells: baculovirus expression system (insect cells)
# In short: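 Coupled-enzyme readout: ADP generated by MEK-mediated ATP hydrolysis, uncoupled from ERK phosphorylation, is linked to NADH oxidation through pyruvate kinase and lactate dehydrogenase.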
# A375P F11s = experiment: 3-day proliferation assays, selection of A375P F11s clone; assay type: cell-based, human; conditions: A375P F11s subclone of A375P
# Description: Activity of select exemplified compounds was tested in vivo against A375 PF11s (melanoma cell line encoding a B-Raf V600E mutation) xenograft mouse model. The A375P F11s cell line, encoding a mutation for BRAF^V600E, was subcloned from the A375P human melanoma cell line (obtained from ATCC, Cat # CRL-1619) by limiting dilution and selected based on high (90%) sensitivity to the BRAF inhibitor, SB-590885 (commercially available), in 3-day proliferation assays. The selected clone (A375P F11s) was isolated and mutation in B-Raf (T1799A) encoding the V600E amino acid change was reconfirmed.
# [4] = COLO 205, 72 h, Table 2a, 3 days incubation, read-out: Activity in Colo205 Tumor Cells
# [5] = SK-MEL-28, 72 h, Table 3a, 3 days incubation, read-out: Activity in SK-MEL-28 Tumor Cells
# [6] = B-Raf Activity, Table 1a, highest pIC50 for the one or more runs
# [7] = Table 1b, later runs, average pIC50 for the one or more runs, read-out: B-Raf pIC50 (converted)
# [8] = COLO 205, Table 2b, later runs, average for the one or more runs, categorized, read-out: IC50 for Colo205
# [9] = SK-MEL-28, Table 3b, later runs, average for the one or more runs, categorized, read-out: IC50 for SK-MEL-28
# [10] = A375P F11s xenograft tumors, single oral dose of 100 mg/kg, 2 h after administration
# [11] = B-Raf pIC50, Table 1b, later runs, average pIC50 for the one or more runs
# T1 sequence (P15056 2-766 V600E): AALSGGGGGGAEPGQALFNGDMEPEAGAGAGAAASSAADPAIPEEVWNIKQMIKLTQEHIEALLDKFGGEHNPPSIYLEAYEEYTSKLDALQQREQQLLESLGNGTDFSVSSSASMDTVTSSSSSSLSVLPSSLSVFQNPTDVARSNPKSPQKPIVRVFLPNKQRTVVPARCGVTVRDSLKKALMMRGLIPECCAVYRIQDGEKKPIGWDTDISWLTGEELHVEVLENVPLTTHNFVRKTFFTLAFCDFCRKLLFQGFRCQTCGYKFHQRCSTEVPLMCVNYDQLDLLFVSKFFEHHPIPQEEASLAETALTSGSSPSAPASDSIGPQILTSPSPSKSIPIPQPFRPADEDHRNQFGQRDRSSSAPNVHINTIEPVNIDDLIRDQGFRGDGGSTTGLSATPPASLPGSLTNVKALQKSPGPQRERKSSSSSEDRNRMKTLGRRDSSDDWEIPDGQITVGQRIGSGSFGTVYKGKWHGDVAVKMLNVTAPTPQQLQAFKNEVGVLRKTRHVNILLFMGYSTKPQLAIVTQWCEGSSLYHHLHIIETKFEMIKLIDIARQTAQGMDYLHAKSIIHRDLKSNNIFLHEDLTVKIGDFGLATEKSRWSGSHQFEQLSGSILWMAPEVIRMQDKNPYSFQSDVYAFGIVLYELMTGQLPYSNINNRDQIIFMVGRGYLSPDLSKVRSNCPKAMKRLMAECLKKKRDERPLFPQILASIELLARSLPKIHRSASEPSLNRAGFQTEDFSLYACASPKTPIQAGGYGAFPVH
SMILES,"IC50 [1, 4]","IC50 [2, 5]","inhibition at 100 mg/kg (pERK (pERK/tERK); A375P, po, 2 h)","IC50 [3, 6]","IC50 [3, 7]","IC50 [1, 8]","IC50 [2, 9]",inhibition at 100 mg/kg (pERK (pERK/tERK); [10]),"IC50 [3, 11]",sensitivity to the BRAF inhibitor in 3-day proliferation assays (A375P F11s)
"CC(C)(C)c1nc(-c2cccc(NS(=O)(=O)c3c(F)cccc3F)c2F)c(-c2ccnc(N)n2)s1 [Example 58, N-{3-[5-(2-amino-4-pyrimidinyl)-2-(1,1-dimethylethyl)-1,3-thiazol-4-yl]-2-fluorophenyl}-2,6-difluorobenzenesulfonamide]",< 100 nM,< 100 nM,≥ 30%,,,,,,,
"Cc1nccc(-c2sc(C3CCOCC3)nc2-c2cccc(NS(=O)(=O)c3c(F)cccc3F)c2Cl)n1 [Example 25, N-{2-Chloro-3-[5-(2-methyl-4-pyrimidinyl)-2-(tetrahydro-2H-pyran-4-yl)-1,3-thiazol-4-yl]phenyl}-2,6-difluorobenzenesulfonamide trifluoroacetate]",100 to 1000 nM,< 100 nM,,< 100 nM,3.16 to 31.6 nM,100 to 1000 nM,< 100 nM,≥ 30%,,
Nc1nccc(-c2sc(N3CCOCC3)nc2-c2cccc(NS(=O)(=O)c3cc(F)ccc3F)c2Cl)n1 [Example 156],< 100 nM,< 100 nM,,< 100 nM,,< 100 nM,< 100 nM,≥ 30%,≤ 3.16 nM,
CN(C)CCOc1ccc(-c2nc(-c3ccncc3)c(-c3ccc4c(c3)CC/C4=N\O)[nH]2)cc1 [SB-590885],,,,,,,,,,90%
"Nc1nccc(-c2sc(C3CCOCC3)nc2-c2cccc(NS(=O)(=O)c3c(F)cccc3F)c2F)n1 [Example 64, N-{3-[5-(2-amino-4-pyrimidinyl)-2-(tetrahydro-2H-pyran-4-yl)-1,3-thiazol-4-yl]-2-fluorophenyl}-2,6-difluorobenzenesulfonamide]",< 100 nM,< 100 nM,,< 100 nM,,< 100 nM,< 100 nM,≥ 30%,≤ 3.16 nM,
"Nc1nccc(-c2sc(N3CCOCC3)nc2-c2cccc(NS(=O)(=O)c3c(F)cccc3F)c2F)n1 [Example 59, N-{3-[5-(2-Amino-4-pyrimidinyl)-2-(4-morpholinyl)-1,3-thiazol-4-yl]-2-fluorophenyl}-2,6-difluorobenzenesulfonamide]",100 to 1000 nM,100 to 1000 nM,,< 100 nM,3.16 to 31.6 nM,100 to 1000 nM,100 to 1000 nM,≥ 30%,,
"O=S(=O)(Nc1cccc(-c2nc(C3CCOCC3)sc2-c2ccncn2)c1Cl)c1c(F)cccc1F [Example 26, N-{2-Chloro-3-[5-(4-pyrimidinyl)-2-(tetrahydro-2H-pyran-4-yl)-1,3-thiazol-4-yl]phenyl}-2,6-difluorobenzenesulfonamide]",< 100 nM,< 100 nM,,< 100 nM,,< 100 nM,< 100 nM,≥ 30%,≤ 3.16 nM,
"CC(C)(C)c1nc(-c2cccc(NS(=O)(=O)c3cc(F)ccc3F)c2F)c(-c2ccncn2)s1 [Example 66, N-{3-[2-(1,1-Dimethylethyl)-5-(4-pyrimidinyl)-1,3-thiazol-4-yl]-2-fluorophenyl}-2,5-difluorobenzenesulfonamide]",< 100 nM,< 100 nM,,< 100 nM,,< 100 nM,< 100 nM,≥ 30%,≤ 3.16 nM,
"Cc1nccc(-c2sc(C(C)(C)C)nc2-c2cccc(NS(=O)(=O)c3cc(F)ccc3F)c2F)n1 [Example 65, N-{3-[2-(1,1-dimethylethyl)-5-(2-methyl-4-pyrimidinyl)-1,3-thiazol-4-yl]-2-fluorophenyl}-2,5-difluorobenzenesulfonamide]",< 100 nM,< 100 nM,,< 100 nM,,< 100 nM,< 100 nM,≥ 30%,≤ 3.16 nM,
"Nc1nccc(-c2sc(N3CCOCC3)nc2-c2cccc(NS(=O)(=O)c3ccco3)c2Cl)n1 [Example 24, N-{3-[5-(2-Amino-4-pyrimidinyl)-2-(4-morpholinyl)-1,3-thiazol-4-yl]-2-chlorophenyl}-2-furansulfonamide]",< 100 nM,< 100 nM,,< 100 nM,,100 to 1000 nM,100 to 1000 nM,≥ 30%,≤ 3.16 nM,
